Experiments:
[1] = biological target: T1, Poly [ADP-ribose] polymerase tankyrase-2 (Homo sapiens, UniProt Q9H2K2); assay: Inhibition of TNKS2 (unknown origin) expressed in HEK293 cells assessed as inhibition of Wnt3a-induced Wnt/beta-catenin signaling after 24 hrs by luciferase reporter gene assay; type: cell-based
T1 sequence (Q9H2K2 whole entry): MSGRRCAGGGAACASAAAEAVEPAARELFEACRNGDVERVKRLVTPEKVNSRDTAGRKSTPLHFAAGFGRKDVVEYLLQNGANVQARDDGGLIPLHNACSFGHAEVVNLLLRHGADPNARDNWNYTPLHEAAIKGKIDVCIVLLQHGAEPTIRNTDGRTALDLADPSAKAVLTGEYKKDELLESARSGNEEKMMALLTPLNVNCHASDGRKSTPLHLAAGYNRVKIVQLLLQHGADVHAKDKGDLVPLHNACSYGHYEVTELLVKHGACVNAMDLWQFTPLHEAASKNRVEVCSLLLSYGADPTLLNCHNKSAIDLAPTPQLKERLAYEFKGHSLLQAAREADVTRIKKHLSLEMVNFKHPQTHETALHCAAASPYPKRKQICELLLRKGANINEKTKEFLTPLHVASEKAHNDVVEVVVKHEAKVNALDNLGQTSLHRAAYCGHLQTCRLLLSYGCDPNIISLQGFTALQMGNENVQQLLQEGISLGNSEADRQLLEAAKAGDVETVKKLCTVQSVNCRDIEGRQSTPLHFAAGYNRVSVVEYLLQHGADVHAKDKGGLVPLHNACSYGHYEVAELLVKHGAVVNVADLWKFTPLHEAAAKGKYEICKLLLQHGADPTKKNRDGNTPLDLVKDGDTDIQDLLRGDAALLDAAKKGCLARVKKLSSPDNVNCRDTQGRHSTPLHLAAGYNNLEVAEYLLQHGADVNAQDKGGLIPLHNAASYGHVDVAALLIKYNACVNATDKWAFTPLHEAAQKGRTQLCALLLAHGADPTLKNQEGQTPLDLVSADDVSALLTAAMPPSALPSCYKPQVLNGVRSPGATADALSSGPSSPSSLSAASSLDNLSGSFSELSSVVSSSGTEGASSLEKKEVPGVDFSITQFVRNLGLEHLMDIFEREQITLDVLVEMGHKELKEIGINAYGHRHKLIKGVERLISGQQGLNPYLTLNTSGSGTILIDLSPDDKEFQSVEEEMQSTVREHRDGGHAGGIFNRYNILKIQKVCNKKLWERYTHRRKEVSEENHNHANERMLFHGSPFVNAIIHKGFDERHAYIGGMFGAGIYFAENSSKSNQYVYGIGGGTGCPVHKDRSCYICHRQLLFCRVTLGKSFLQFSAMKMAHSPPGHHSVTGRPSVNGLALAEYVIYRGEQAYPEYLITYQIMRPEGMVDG

[2] = biological target: T1, Poly [ADP-ribose] polymerase tankyrase-2; assay: Inhibition of TNKS2 (unknown origin) transfected in human SW480 cells assessed as inhibition of Wnt3a-induced Wnt/beta-catenin signaling after 48 hrs by ST-luciferase reporter gene assay; type: cell-based
[3] = biological target: T1, Poly [ADP-ribose] polymerase tankyrase-2; assay: Inhibition of human TNKS2 (873 to 1162 residues) assessed as reduction in NAD+ consumption by fluorescence assay

IC50 [1]: 1060 nM
IC50 [2]: 1800 nM
IC50 [3]: 430 nM
Compound: O=c1[nH]c2ccccc2n1[C@H]1CC[C@H](c2nnc(-c3ccncn3)n2-c2ccccc2Cl)CC1

From ChEMBL document CHEMBL4028904, “Discovery of a Novel Series of Tankyrase Inhibitors by a Hybridization Approach” (J Med Chem, 2017)
